This note sets out measurements from US20100063085A1, “METHOD OF TREATING LEARNING IMPAIRMENT IN DOWN'S SYNDROME SUBJECTS” (University Court of The University of Dundee, priority 2008, published 2010).

Like-named read-outs stand apart in the source and are kept apart here.

The target of test [1] is JNK/SAPK1c (Homo sapiens, UniProt P45983). Briefly: JNK/SAPK1c 33P kinase assay. The note with it: read-out: JNK/SAPK1c activity as percentage of control without inhibitor. The test is classed as biochemical. As for the experimental part: (§1) All assays (25.5 μl) were carried out at room temperature (21° C.) and were linear with respect to time and enzyme concentrations under the conditions used. Assays were performed for 30 minutes except assays for LCK and PKB which were performed for 15 minutes using Multidrop Micro reagent dispensers (Thermo Electron Corporation, Waltham, Mass. 02454, USA) in a 96-well format. The concentration of […] [γ-^33P] ATP (800 cpm/pmol) in the assays was one of three concentrations (5, 20 or 50 μM) in order to be at or below Km for ATP for the enzyme. Assays were initiated with MgATP and stopped by addition of 5 μl of 0.5M orthophosphoric acid. Assays were then harvested onto P81 filterplates using a unifilter harvester (PerkinElmer, Boston, Mass. 02118, USA), with a wash buffer of 50 mM orthophosphoric acid. Filterplates were then air dried overnight. 10 μl of Microscint O was added per well prior to counting for radioactivity.
Chain of JNK/SAPK1c (P45983 whole entry): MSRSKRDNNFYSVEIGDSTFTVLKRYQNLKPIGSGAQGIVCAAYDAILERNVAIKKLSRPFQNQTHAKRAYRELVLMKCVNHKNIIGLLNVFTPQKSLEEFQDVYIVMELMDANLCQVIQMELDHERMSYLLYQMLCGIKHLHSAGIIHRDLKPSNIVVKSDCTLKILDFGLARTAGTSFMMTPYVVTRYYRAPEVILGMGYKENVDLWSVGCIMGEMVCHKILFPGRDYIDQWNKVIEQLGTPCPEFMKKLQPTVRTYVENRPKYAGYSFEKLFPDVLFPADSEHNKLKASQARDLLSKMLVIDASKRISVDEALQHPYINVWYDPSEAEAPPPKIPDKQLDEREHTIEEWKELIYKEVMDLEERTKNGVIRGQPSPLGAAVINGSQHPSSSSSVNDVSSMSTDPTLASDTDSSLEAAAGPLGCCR
(§2) MKK1, JNK/SAPK1c, SAPK2a/p38, SAPK2b/p38β2, SAPK3/p38γ, SAPK4/p38δ, MAPK2/ERK2, MAPKAP-K1β, MAPKAP-K2, MSK1, PRAK, PKA, PKCα, PDK1, SGK, p70S6K, GSK3β, ROCK-II, PRK2, AMPK, CHK1, CHK2, CK2, PHK, LCK, were assayed according to Davies et al., (Davies, S. P., Reddy, H., Caivano, M. and Cohen, P. Biochem. J. 351, 95-105, 2000.
(§3) CSK and CDK2/cyclinA, were assayed according to Bain et al. (Bain J, McLauchlan H, Elliott M, Cohen P. Biochem J. 371, 199-204, 2003., except that ATP concentrations were either 5, 20 or 50 micromolar so that they were at or below the Km for ATP. The ATP concentrations used were as follows, 5 μM for assays of MKK1, SAPK3, SAPK4, GSK3β, PRK2 CK2 20 μm for assays of JNK, SAPK2β, MAPKAP-K2, MSK1, PRAK, PKA, […], PDK1, SGK, p70S6K, ROCK-II, CHK1, CHK2, CSK, CDK2, and 50 μM for assays of SAPK2a, MAPK2/ERK2, AMPK, LCK, PHK and MAPKAP-K1β.

For test [2], the target named is T1, PDK1 (Homo sapiens, UniProt O15530).
T1 sequence (O15530 1-556): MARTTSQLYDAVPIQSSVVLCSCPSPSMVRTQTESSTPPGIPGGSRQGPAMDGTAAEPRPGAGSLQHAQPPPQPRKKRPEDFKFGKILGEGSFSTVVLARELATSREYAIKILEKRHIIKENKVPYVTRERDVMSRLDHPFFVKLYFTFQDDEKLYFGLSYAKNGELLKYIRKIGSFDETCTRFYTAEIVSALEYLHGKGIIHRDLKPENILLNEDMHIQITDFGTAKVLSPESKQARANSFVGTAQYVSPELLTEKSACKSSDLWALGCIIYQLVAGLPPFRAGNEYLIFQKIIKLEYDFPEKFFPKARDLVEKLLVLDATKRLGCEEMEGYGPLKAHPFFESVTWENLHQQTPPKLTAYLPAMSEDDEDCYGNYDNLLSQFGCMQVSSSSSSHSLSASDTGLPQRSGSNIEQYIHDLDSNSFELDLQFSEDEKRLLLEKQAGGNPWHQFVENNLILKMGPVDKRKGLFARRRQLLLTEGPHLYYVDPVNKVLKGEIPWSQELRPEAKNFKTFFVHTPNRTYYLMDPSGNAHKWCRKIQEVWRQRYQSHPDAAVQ
Briefly: PDK1 33P kinase assay. The test is classed as biochemical. The note with it: for remaining activity at 1 µM: inhibitor 1 μM, read-out: PDKI activity as percentage of control without inhibitor; for remaining activity at 10 µM: inhibitor 10 μM, read-out: PDK1 activity as percentage of control without inhibitor. The method, then:
as §1, §2, §3

In test [3] the test system is CK1. The experiment in a line: CK1 33P kinase assay. The test is classed as biochemical. The method, then: as §1
Test [4] addresses T2, CHK1 (Homo sapiens, UniProt O14757).
T2 sequence (O14757 1-476): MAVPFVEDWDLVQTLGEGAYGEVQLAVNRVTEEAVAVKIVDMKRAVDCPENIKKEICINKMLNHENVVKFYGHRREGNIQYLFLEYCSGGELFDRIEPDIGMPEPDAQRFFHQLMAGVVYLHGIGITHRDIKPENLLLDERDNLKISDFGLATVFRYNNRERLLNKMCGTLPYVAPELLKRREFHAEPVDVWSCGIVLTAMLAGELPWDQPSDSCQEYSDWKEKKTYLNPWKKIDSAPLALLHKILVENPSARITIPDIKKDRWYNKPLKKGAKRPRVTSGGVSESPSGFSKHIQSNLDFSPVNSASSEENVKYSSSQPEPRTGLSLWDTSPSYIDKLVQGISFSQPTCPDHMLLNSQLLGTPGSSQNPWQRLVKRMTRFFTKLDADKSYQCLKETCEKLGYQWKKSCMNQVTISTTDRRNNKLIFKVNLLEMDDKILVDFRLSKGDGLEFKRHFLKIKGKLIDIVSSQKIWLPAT
Briefly: CHK1 33P kinase assay. The test is classed as biochemical. The note with it: read-out: CHK1 activity as percentage of control without inhibitor. As for the experimental part: as §1, §2, §3

The target of test [5] is NEK6 (Homo sapiens, UniProt Q9HC98). The experiment in a line: biochemical. The note with it: read-out: NEK6 activity as percentage of control without inhibitor. The method, then: as §1
Chain of NEK6 (Q9HC98 whole entry, species assumed): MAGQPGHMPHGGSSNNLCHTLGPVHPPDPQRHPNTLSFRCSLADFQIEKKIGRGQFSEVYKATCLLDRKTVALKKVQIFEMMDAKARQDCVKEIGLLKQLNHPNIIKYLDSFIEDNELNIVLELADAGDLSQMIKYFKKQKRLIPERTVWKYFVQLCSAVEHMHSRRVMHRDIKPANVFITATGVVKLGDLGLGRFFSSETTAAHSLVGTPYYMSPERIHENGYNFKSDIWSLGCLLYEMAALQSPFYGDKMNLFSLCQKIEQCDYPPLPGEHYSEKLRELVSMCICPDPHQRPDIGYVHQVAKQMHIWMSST
NEK6 (5-20 mU diluted in 50 mM Tris (pH 7.5), 0.1 mM EGTA, 1 mg/ml BSA, 0.1%, β-Mercaptoethanol) is assayed against NEK6 peptide ([…]) in a final volume of 25.5 μl containing 50 mM Tris (pH 7.5), 0.1 mM EGTA, 0.01% Brij, 0.1%, β-Mercaptoethanol, NEK6 peptide (0.3 mM), 10 mM magnesium acetate and 0.05 mM [^33P- γATP](500-1000 cpm/pmole) and incubated for 30 min at room temperature.

Test [6] deals with CK2. The experiment in a line: CK2 33P kinase assay. The test is classed as biochemical. As for the experimental part:
as §1, §2, §3

The target of test [7] is SAPK2a/p38 (Homo sapiens, UniProt Q16539). Briefly: SAPK2a/p38 33P kinase assay. The test is classed as biochemical. The note with it: read-out: SAPK2a/p38 activity as percentage of control without inhibitor. As for the experimental part:
as §1, §2, §3

In test [8] the target is CDK2/cyclin A (Homo sapiens, UniProt P24941). Briefly: CDK2/cyclin A 33P kinase assay. The test is classed as biochemical. The note with it: read-out: CDK2/cyclin A activity as percentage of control without inhibitor. As for the experimental part:
as §1, §3

Chain of SAPK2a/p38 (Q16539 whole entry): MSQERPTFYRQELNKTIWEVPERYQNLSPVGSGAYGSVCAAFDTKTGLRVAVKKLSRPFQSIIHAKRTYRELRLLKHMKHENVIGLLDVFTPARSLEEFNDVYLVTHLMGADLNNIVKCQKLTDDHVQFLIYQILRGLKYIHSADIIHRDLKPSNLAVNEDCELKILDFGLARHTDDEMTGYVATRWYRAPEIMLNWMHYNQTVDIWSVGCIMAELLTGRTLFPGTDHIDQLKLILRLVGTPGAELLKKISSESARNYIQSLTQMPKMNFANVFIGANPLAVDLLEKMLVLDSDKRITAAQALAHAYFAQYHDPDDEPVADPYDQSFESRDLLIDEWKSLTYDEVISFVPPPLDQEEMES

On to `COc1ccc2c3c([nH]c2c1)C(C)=NCC3` [Harmaline], for which the remaining activity at 1 µM in test [1] was found to be 99%; in test [2] it was 100%; in test [4], 78%; in test [5] (inhibitor 1 μM), 99%; in test [7], 89%; in test [8], 99%. For the same molecule, the remaining activity at 10 µM in test [1] is 96%; in test [2] it was 95%; in test [4], 67%; in test [5] (inhibitor 10 μM) it was 87%; in test [7], 86%; in test [8], 98%. The “CK1 activity as percentage of control without inhibitor” value in test [3] (inhibitor 1 μM) was 84%; in test [3] (inhibitor 10 μM), 65%. The “CK2 activity as percentage of control without inhibitor” value in test [6] (inhibitor 1 μM) worked out at 94%; in test [6] (inhibitor 10 μM), 88%.

As to `CC1=NCCc2c1[nH]c1cc(O)ccc21` [Harmalol], the remaining activity at 1 µM in test [1] (inhibitor 1 μM) came to 87%; in test [2], 88%; in test [4] (inhibitor 1 μM), 93%; in test [5] (inhibitor 1 μM), 94%; in test [7] (inhibitor 1 μM) it was 95%; in test [8] (inhibitor 1 μM), 97%. The remaining activity at 10 µM in test [1] (inhibitor 10 μM) was 84%; in test [2], 96%; in test [4] (inhibitor 10 μM) it was 81%; in test [5] (inhibitor 10 μM) it was 92%; in test [7] (inhibitor 10 μM), 74%; in test [8] (inhibitor 10 μM), 77%. The “CK1 activity as percentage of control without inhibitor” value in test [3] (inhibitor 1 μM) worked out at 83%; in test [3] (inhibitor 10 μM), 48%. Besides, the “CK2 activity as percentage of control without inhibitor” value is on record as 55% in test [6] (inhibitor 1 μM) and 12% in test [6] (inhibitor 10 μM).

`COc1ccc2c(c1)[nH]c1c(C)nccc12` [Harmine]: the remaining activity at 1 µM in test [1] worked out at 85%; in test [2], 89%; in test [4] it was 86%; in test [5] it was 96%; in test [7], 95%; in test [8], 98%. The remaining activity at 10 µM in test [1] is 69%; in test [2], 95%; in test [4] it was 86%; in test [5], 99%; in test [7], 81%; in test [8] it was 62%. Further, the results for the “CK1 activity as percentage of control without inhibitor” value in test [3] (inhibitor 1 μM) and in test [3] (inhibitor 10 μM) were 61% and 21%, respectively. Also, the entries for the “CK2 activity as percentage of control without inhibitor” value in test [6] (inhibitor 1 μM) and in test [6] (inhibitor 10 μM) were 82% and 41%, respectively.
